Reference: EP4818187A1, “COMPOUND AND USE THEREOF” (Ganzhou Hemay Pharmaceutical, Co., Ltd, priority 2023, dated 2025)

Legend:
[1] = system: Fadu (human pharyngeal squamous cell carcinoma); assay: In vitro inhibitory effect against human tumor cells (MTT); type: cell-based; details: 72 h, 3 days
Procedure: (§1) Cells were cultured with 5% CO2 at 37°C and saturated humidity until they reached a logarithmic growth phase (usually adherent cells were nearly fully confluent). After removing adherent cells by trypsin/EDTA digestion, the cells were collected for subsequent experiments.
(§2) The cells were inoculated into a 96-well cell culture plate (hereinafter referred to as the 96-well plate) based on the cell count shown in Table 2, cultured overnight to achieve cell adherence, and then, after different concentrations of the test compound were added, further cultured for a total of 3 days. Finally, the total cell protein in the assay wells was assayed by SRB, or the cell viability was assessed by MTT:
(§3) 2.2 Assaying cell viability by MTT: the modification is based on the method in the literature (J. Carmichael, W. DeGraff, A. Gazdar et al., Evaluation of a tetrazolium-based semiautomated colorimetric assay: assessment of chemosensitivity testing. Cancer Research. 1987, 47: 936-942). Specific method: For well-adherent cells: the medium was pipetted out, 100 µL of a basal medium containing 0.5 mg/mL MTT (medium free of fetal bovine serum (FBS) and other additives) was added to each well, and culture was continued for additional 3 h. The MTT-containing basal medium was pipetted out, and 100 µL of DMSO was added to each well to dissolve formazan, followed by assay at a wavelength of 490 nm.
(§4) For poorly-adherent cells: MTT solution was directly added to a concentration of 0.5 mg/mL, culture was continued for additional 3 h, and an equal volume of triple solvent was added to the system to dissolve formazan, followed by assay at a wavelength of 570 nm.
(§5) 2.3: 1-2 mg of β-glucuronidase was weighed, and dissolved in PBS to prepare 2 mg/mL stock solution. Prior to use, the stock solution was diluted with a complete medium to prepare 12.5 µg/mL enzyme working solution. For assay wells requiring the enzyme, 80 µL of the enzyme working solution was added, with the β-glucuronidase at a concentration of 1 µg/well; and for assay wells not requiring the enzyme, 80 µL of the complete medium was added.
(§6) 1-3 mg of the test compound was weighed, and dissolved in DMSO to prepare 20 mM stock solution. The stock solution was diluted in a 3-fold gradient with DMSO, then diluted 100-fold with RPMI1640 basal medium to obtain 10× working solutions, with a total of 8 concentrations. 20 µL of the 10× working solutions were add to the assay wells, with the final volume of each well of 200 µL, and with the DMSO at a concentration of 0.1%.
(§7) 2.4 Calculation of inhibitory activity of compound: the experiment includes a compound test group, a compound-free positive solvent control group (PC), and a negative solvent control group (NC) without cells and the compound. Inhibition rate = [1−(testvalue−NCmean)/(PCmean−NCmean)] × 100% [formula]
(§8) The mean and SD of the inhibition rate were obtained from replicate assay wells. A curve was plotted with the compound concentrations distributed in a logarithmic form as the abscissa and with the mean inhibition rates as the ordinate, and was fitted with a 4-parameter logistic equation. The compound concentration corresponding to 50% inhibition rate on the curve is the IC50 value. Table 2: Culture medium formulation and cell inoculation concentration for human tumor cell lines

[2] = system: HCT116 (human colorectal cancer); assay: as above; type: cell-based; details: HCT-116, 72 h, 3 days
Procedure: as §1, §2, §3, §4, §5, §6, §7, §8

[3] = system: NCI-H1975 (human non-small cell lung cancer); assay: as above; type: cell-based; details: NCI-H1975, 72 h, 3 days
Procedure: as §1, §2, §3, §4, §5, §6, §7, §8

[4] = system: NCI-N87 (human gastric cancer cell); assay: as above; type: cell-based; details: NCI-N87, 72 h, 3 days
Procedure: as §1, §2, §3, §4, §5, §6, §7, §8

[5] = system: SK-OV-3 (human ovarian cancer); assay: as above; type: cell-based; details: SK-OV-3, 72 h, SK-OV-3, MTT, 3 days
Procedure: as §1, §2, §3, §4, §5, §6, §7, §8

[6] = system: 22RV1 (human prostate cancer); assay: In vitro inhibitory effect against human tumor cells (SRB); type: cell-based; details: 22Rv1, 72 h, 22RV1, SRB, 3 days
Procedure: as §1, §2
(§9) 2.1 Assaying total cell protein by SRB: the modification is based on the method in the literature (V. Vichai and K. Kirtikara. Sulforhodamine B colorimetric assay for cytotoxicity screening. Nature Protocols. 2006, 1: 1112-1116). Specific method: the culture medium was pipetted out from the wells, the cells were fixed with 10% trichloroacetic acid for more than 1 h, and trichloroacetic acid was removed; the cells were washed with H2O, and stained with 0.4% SRB for 15-30 min; after excess SRB was removed, the cells were washed with 1% acetic acid; 100 µl of 10 mM tris(trihydroxymethylaminomethane) was added to dissolve the protein-bound SRB, followed by assay at a wavelength of 570 nm.
as §5, §6, §7, §8

[7] = system: A375 (human malignant melanoma); assay: as above; type: cell-based; details: A-375, 72 h, 3 days
Procedure: as §1, §2, §9, §5, §6, §7, §8

[8] = system: HCC827 (human non-small cell lung cancer); assay: as above; type: cell-based; details: HCC827, 72 h, 3 days
Procedure: as §1, §2, §9, §5, §6, §7, §8

[9] = system: HepG2 (human liver cancer cell); assay: as above; type: cell-based; details: HepG2, 72 h, 3 days
Procedure: as §1, §2, §9, §5, §6, §7, §8

[10] = system: MDA-MB-468 (human triple-negative breast cancer); assay: as above; type: cell-based; details: MDA-MB-468, 72 h, MDA-MB-468, SRB, 3 days
Procedure: as §1, §2, §9, §5, §6, §7, §8

[11] = system: SW620 (human colorectal cancer); assay: as above; type: cell-based; details: SW-620, 72 h, 3 days
Procedure: as §1, §2, §9, §5, §6, §7, §8

[12] = system: BxPC-3 (human pancreatic cancer in situ); assay: In vitro inhibitory effect against human tumor cells (MTT or SRB); type: cell-based; details: BXPC-3, 72 h, BxPC-3, test method printed MTT (head: SRB), 3 days
Procedure: as §1, §2, §9, §3, §4, §5, §6, §7, §8

[13] = system: human ovarian cancer SK-OV-3; assay: Biological Example 6: in vivo xenograft model of human ovarian cancer SK-OV-3; parameters: species or system Balb/c-nu nude mice; details: SK-OV-3 xenograft, nude mice, 0.8 mg/kg i.v. qw×3
[14] = system: human non-small cell lung cancer NCI-H1975; assay: Biological Example 8: in vivo xenograft model of human non-small cell lung cancer NCI-H1975; parameters: species or system Balb/c-nu nude mice; details: nude mice
[15] = With addition of βGU (1 µg/well)

`CC[C@H](C)[C@@H]([C@@H](CC(=O)N1CCC[C@H]1[C@H](OC)[C@@H](C)C(=O)N[C@H](C)[C@@H](O)c1ccccc1)OC)N(C)C(=O)[C@@H](NC(=O)[C@H](C(C)C)[N+](C)(C)Cc1ccc(O[C@@H]2O[C@H](C(=O)[O-])[C@@H](O)[C@H](O)[C@H]2O)cc1OCc1cn(CCCCCC(=O)Nc2ccc(-c3ccc(/N=N/c4ccc5c(S(=O)(=O)[O-])cc(S(=O)(=O)[O-])c(N)c5c4O)c(C)c3)cc2C)nn1)C(C)C.[Na+].[Na+]` [Example compound 4] gave an IC50 [1, 15] of 1.7 nM, an IC50 ([1]; βGU-free) of 21 nM and an IC50 [2, 15] of 6.6 nM. The IC50 ([2]; βGU-free) was 139 nM, the IC50 [3, 15] was 5.5 nM and the IC50 ([3]; βGU-free) was 86 nM. The IC50 [4, 15] was 2.3 nM, the IC50 ([4]; βGU-free) was 58 nM and the IC50 [5, 15] was 5.1 nM. It also gave an IC50 ([5]; βGU-free) of 215 nM, an IC50 [6, 15] of 7 nM and an IC50 ([6]; βGU-free) of 115 nM. For the same compound, the IC50 [7, 15] was 5 nM, the IC50 ([7]; βGU-free) was 66 nM and the IC50 [8, 15] was 3.4 nM. For the same compound, the IC50 ([8]; βGU-free) was 54 nM, the IC50 [9, 15] was 4.7 nM and the IC50 ([9]; βGU-free) was 72 nM. For the same compound, the IC50 [10, 15] was 0.96 nM, the IC50 ([10]; βGU-free) was 8.8 nM and the IC50 [11, 15] was 3.4 nM. The IC50 ([11]; βGU-free) was 67 nM, the IC50 [12, 15] was 1.9 nM and the IC50 ([12]; βGU-free) was 44 nM. For the same compound, the “Final body weight change (%)” value [13] was 4.2%, the “Maximum body weight change (%)” value [13] was 4.8, d17% and the “Relative volume RTV (x±S.D.)” value [13] was 0.79±0.79. The “T/C (%)” value [13] was 7.6%, the “Tumor inhibition rate (%)” value [13] was 96.0% and the “Tumor weight (g, x±S.D.)” value [13] was 0.055 ± 0.077 g. For the same compound, the “Body weight (g, x±S.D.) End” value ([13]; End) was 24.2 ± 0.9 g, the “Body weight (g, x±S.D.) Start” value ([13]; Start) was 23.3 ± 0.8 g and the “Final body weight change (%)” value ([14]; 0.8 mg/kg i.v. qw×3) was 4.9%. For the same compound, the “Maximum body weight change (%)” value ([14]; 0.8 mg/kg i.v. qw×3) was 4.9, d24%, the “Relative volume RTV (x±S.D.)” value ([14]; 0.8 mg/kg i.v. qw×3) was 0.33±0.17 and the “T/C (%)” value ([14]; 0.8 mg/kg i.v. qw×3) was 2.7%. For the same compound, the “Tumor inhibition rate (%)” value ([14]; 0.8 mg/kg i.v. qw×3) was 97.3%, the “Tumor weight (g, x±S.D.)” value ([14]; 0.8 mg/kg i.v. qw×3) was 0.072 ± 0.046 g and the “Body weight (g, x±S.D.) End 24d” value ([14]; 0.8 mg/kg i.v. qw×3, End 24d) was 26.0 ± 1.1 g. The “Body weight (g, x±S.D.) Start” value ([14]; 0.8 mg/kg i.v. qw×3, Start) was 24.8 ± 0.8 g.
